Where two headings read alike, the source gives them in different places.
Assays:
KRAS G12C = biological target: T1, KRAS G12C (Homo sapiens, UniProt P01116, G12C); experiment: KRAS G12C nucleotide exchange assay (SOS1 mediated, HTRF); assay type: biochemical; conditions: 1 hr pre-incubation at RT, read-out: IC50 (inhibition of KRas G12C)
T1 construct: Kras (aa 2-169), GST; purchased Reaction Biology Corporation (RBC)
Procedure: Exemplary compounds were tested for ability to inhibit KRas G12C.
KRAS target engagement (IC50 determination) was performed using a KRAS G12C nucleotide exchange assay (Reaction Biology Corporation). Specifically, compounds were tested against KRAS G12C in 10-point concentration IC50 mode with 3-fold serial dilution at a starting concentration of 10 μM. ARS1620 was used as a control. Compounds were pre-incubated with protein for 1 hr at RT. Parameters for the assay were:
In the method, Kras was mixed with a-GST Tb antibody (1.5× solution) and […] was delivered to reaction wells. Compounds were delivered using acoustic dispenser (Echo, Labcyte). Kras/aGST-Tb Ab/compound mixture was incubated for 1 hour at room temperature. A 3× solution of SOS1 and GTP* was prepared in reaction buffer. A […] aliquot of SOS1/GTP* solution was added to reaction well to initiate the exchange reaction. No—SOS1 reaction or max compound concentration was used as blank. IC50 determination was performed using a Sigmoidal dose response (variable slope) equation.

[1] = biological target: T2, EGFR WT (amino acids 669-1011, Accession Number NP_005219.2) (Homo sapiens, UniProt P00533); experiment: KdELECT binding assay (Eurofins Discovery), EGFR WT
T2 construct: purchased Eurofins Discovery; host or cells: bacteria (E. coli, BL21-derived, T7 phage)
Procedure, shortened: (§1)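 Competition binding: WT kinase as T7 phage fusion from E. coli, T790M/L858R produced in HEK-293 and DNA-tagged, incubated 1 h at room temperature with immobilized ligand beads and compound (11-point 3-fold series, 0.9% DMSO). Bead-bound kinase eluted and quantified by qPCR to derive Kd.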

EGFR = biological target: T3, EGFR (Homo sapiens, UniProt P00533); experiment: KdELECT binding assay, EGFR
T3 construct: purchased
Procedure, shortened: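 Competition binding: DNA- or T7 phage-tagged EGFR was incubated 1 h at room temperature with immobilized ligand beads and an 11-point 3-fold compound series (0.9% DMSO final). Bead-bound kinase was eluted and quantified by qPCR to derive Kd.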

HeLa cells = experiment: Cellular growth inhibition assay (CellTiter-Glo), HeLa cells; assay type: cell-based; conditions: three days compound treatment, CellTiter-Glo 2.0, read-out: CTG HELA GI50
Procedure, shortened: (§2)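 HEK293 or HeLa cells seeded at 500 cells/well in DMEM with 10% FBS, treated after 24 h with titrated compound for three days at 37 °C, 5% CO2. CellTiter-Glo 2.0 luminescence read on Day 0 and Day 3, normalized to DMSO, four-parameter fit giving GI50.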

[2] = biological target: T4, EGFR T790M, L858R (amino acids 669-1011 Accession Number NP_005219.2) (Homo sapiens, UniProt P00533, L858R/T790M); experiment: KdELECT binding assay (Eurofins Discovery), EGFR T790M, L858R; conditions: read-out: EGFR DM Kd
T4 construct: purchased Eurofins Discovery; host or cells: mammalian cells (HEK-293)
Procedure, shortened: as §1

HEK293 cells = experiment: Cellular growth inhibition assay (CellTiter-Glo), HEK293 cells; assay type: cell-based; conditions: three days compound treatment, CellTiter-Glo 2.0, read-out: CTG HEK293 GI50
Procedure, shortened: as §2

T1 sequence (P01116 2-169 isoform P01116-2 G12C): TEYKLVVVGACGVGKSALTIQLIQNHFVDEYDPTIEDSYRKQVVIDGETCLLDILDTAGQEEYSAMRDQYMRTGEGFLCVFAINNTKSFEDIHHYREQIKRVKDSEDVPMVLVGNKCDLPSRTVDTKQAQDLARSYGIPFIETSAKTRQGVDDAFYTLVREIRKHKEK
T4 sequence (P00533 669-1011 T790M/L858R): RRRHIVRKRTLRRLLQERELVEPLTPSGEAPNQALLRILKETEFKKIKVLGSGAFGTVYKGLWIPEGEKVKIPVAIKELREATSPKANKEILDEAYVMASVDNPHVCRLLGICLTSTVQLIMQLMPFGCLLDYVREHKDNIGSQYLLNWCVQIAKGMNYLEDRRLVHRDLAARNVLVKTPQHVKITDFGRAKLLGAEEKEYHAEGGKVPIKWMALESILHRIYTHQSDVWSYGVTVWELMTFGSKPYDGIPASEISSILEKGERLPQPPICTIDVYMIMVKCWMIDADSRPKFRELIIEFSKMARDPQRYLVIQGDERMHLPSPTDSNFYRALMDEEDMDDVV
T3 sequence (P00533 25-1210): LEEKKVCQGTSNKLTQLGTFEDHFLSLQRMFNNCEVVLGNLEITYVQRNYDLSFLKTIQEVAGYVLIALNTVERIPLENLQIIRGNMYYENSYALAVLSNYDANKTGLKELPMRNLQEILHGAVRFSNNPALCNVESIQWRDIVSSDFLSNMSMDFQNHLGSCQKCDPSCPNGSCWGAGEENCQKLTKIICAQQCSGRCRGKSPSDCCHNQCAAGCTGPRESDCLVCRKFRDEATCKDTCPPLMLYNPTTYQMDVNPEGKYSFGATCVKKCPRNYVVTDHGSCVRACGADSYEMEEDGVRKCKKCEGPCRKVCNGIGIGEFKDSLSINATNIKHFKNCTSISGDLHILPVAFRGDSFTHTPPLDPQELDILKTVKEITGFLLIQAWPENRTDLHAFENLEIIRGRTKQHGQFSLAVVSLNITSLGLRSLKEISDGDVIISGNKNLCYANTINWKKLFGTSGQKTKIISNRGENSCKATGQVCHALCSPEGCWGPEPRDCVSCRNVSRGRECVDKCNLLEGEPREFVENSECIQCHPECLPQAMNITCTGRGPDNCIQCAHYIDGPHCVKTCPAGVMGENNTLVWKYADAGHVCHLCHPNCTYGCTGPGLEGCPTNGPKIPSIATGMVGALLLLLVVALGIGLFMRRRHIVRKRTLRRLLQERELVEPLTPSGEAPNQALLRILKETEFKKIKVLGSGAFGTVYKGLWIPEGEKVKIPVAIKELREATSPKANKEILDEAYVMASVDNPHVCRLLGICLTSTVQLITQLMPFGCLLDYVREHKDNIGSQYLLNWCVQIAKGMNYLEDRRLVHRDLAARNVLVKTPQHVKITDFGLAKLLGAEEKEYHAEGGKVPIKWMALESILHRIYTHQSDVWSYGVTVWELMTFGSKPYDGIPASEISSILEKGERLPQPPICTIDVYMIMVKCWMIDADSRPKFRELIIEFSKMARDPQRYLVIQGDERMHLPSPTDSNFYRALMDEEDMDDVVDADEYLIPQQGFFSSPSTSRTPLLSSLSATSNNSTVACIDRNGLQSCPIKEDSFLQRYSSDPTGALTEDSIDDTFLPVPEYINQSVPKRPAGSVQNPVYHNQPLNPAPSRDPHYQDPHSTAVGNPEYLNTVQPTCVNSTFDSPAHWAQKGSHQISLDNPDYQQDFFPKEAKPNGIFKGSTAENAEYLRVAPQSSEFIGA
T2 sequence (P00533 669-1011): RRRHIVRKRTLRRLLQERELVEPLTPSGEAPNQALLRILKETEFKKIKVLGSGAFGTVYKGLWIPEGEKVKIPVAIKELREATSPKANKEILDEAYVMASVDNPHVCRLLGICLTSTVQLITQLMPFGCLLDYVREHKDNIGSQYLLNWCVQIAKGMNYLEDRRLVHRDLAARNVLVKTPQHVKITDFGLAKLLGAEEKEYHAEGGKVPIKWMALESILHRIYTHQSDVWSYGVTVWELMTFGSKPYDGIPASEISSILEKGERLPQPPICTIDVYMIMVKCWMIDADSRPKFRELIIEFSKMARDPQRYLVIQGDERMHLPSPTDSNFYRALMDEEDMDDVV

| SMILES | IC50 (KRAS G12C) | Kd [1] | Kd (EGFR) | GI50 (HeLa cells; Homo sapiens, 72 h) | Kd [2] | GI50 (HEK293 cells; Homo sapiens, 72 h) | GI50 (HeLa cells) | GI50 (HEK293 cells) |
| --- | --- | --- | --- | --- | --- | --- | --- | --- |
| CN(C/C=C/C(=O)N1CCN(c2nc(OC[C@@H]3CCCN3C)nc3c2CCN(c2cccc4cccc(Cl)c24)C3)C[C@@H]1CC#N)CCOCCOCCOCCOCCON(C)C(=O)N1N=C(c2cc(F)ccc2F)SC1(CCCN)c1ccccc1 (stereo partly drawn) [Compound I-96, 2-(3-aminopropyl)-N-[2-[2-[2-[2-[2-[[(E)-4-[(2S)-4-[7-(8-chloro-1-naphthyl)-2-[[(2S)-1-methylpyrrolidin-2-yl]methoxy]-6,8-dihydro-5H-pyrido[3,4-d]pyrimidin-4-yl]-2-(cyanomethyl)piperazin-1-yl]-4-oxo-but-2-enyl]-methylamino]ethoxy]ethoxy]ethoxy]ethoxy]ethoxy]-5-(2,5-difluorophenyl)-N-methyl-2-phenyl-1,3,4-thiadiazole-3-carboxamide] | < 100 nM | – | – | – | – | – | – | – |
| C=C(F)C(=O)N1CCN(c2nc(OC[C@@H]3CCCN3CCOCCOCCNC(=O)c3ccc(Nc4ncc5c(n4)N(C4CCCC4)[C@H](CC)C(=O)N5C)c(OC)c3)nc3c2CCN(c2cccc4cccc(Cl)c24)C3)C[C@@H]1CC#N [Compound I-63, N-(2-(2-(2-((S)-2-(((7-(8-chloronaphthalen-1-yl)-4-((S)-3-(cyanomethyl)-4-(2-fluoroacryloyl)piperazin-1-yl)-5,6,7,8-tetrahydropyrido[3,4-d]pyrimidin-2-yl)oxy)methyl)pyrrolidin-1-yl)ethoxy)ethoxy)ethyl)-4-(((R)-8-cyclopentyl-7-ethyl-5-methyl-6-oxo-5,6,7,8-tetrahydropteridin-2-yl)amino)-3-methoxybenzamide] | < 100 nM | – | – | – | – | – | – | – |
| C=C(F)C(=O)N1CCN(c2nc(OC[C@@H]3CCCN3CCOCCOCCOCCOCCOCCOCCNC(=O)c3ccc(Nc4ncc5c(n4)N(C4CCCC4)[C@H](CC)C(=O)N5C)c(OC)c3)nc3c2CCN(c2cccc4cccc(Cl)c24)C3)C[C@@H]1CC#N [Compound I-65, N-[2-[2-[2-[2-[2-[2-[2-[(2S)-2-[[7-(8-chloro-1-naphthyl)-4-[(3S)-3-(cyanomethyl)-4-(2-fluoroprop-2-enoyl)piperazin-1-yl]-6,8-dihydro-5H-pyrido1[3,4-d]pyrimidin-2-yl]oxymethyl]pyrrolidin-1-yl]ethoxy]ethoxy]ethoxy]ethoxy]ethoxy]ethoxy]ethyl]-4-[1[(7R)-8-cyclopentyl-7-ethyl-5-methyl-6-oxo-7H-pteridin-2-yl]amino]-3-methoxy-benzamide] | 100 to 1000 nM | – | – | – | – | – | – | – |
| C=C(F)C(=O)N1CCN(c2nc(OCC3CCCN3CCOCCOCCOCCOCCOCCOCCOCCOCCNC(=O)c3cccc(-c4ccc5c(N6CCOCC6C)nc(N6CCOCC6C)nc5n4)c3)nc3c2CCN(c2cccc4cccc(Cl)c24)C3)CC1CC#N [Compound I-21, 3-[2,4-bis[(3R)-3-methylmorpholin-4-yl]pyrido[2,3-d]pyrimidin-7-yl]-N-[2-[2-[2-[2-[2-[2-[2-[2-[2-[(2S)-2-[[7-(8-chloro-1-naphthyl)-4-[(3S)-3-(cyanomethyl)-4-(2-fluoroprop-2-enoyl)piperazin-1-yl]-6,8-dihydro-SH-pyrido[3,4-d]pyrimidin-2-yl]oxymethyl]pyrrolidin-1-yl]ethoxy]ethoxy]ethoxy]ethoxy]ethoxy]ethoxy]ethoxy]ethoxy]ethyl]benzamide] | 100 to 1000 nM | – | – | – | – | – | – | – |
| Cc1ccnc(C(C)C)c1-n1c(=O)nc(N2CCN(C(=O)/C=C/CN(C)CCOCCOCCOCCOCCOCCOCCOCCOCCON(C)C(=O)N3N=C(c4cc(F)ccc4F)SC3(CCCN)c3ccccc3)C[C@@H]2C)c2cc(F)c(-c3c(O)cccc3F)nc21 (stereo partly drawn) [Compound I-79] | 1000 to 5000 nM | – | – | – | – | – | – | – |
| C=CC(=O)N[C@@H]1CN(c2nc(Nc3cn(CCCNC(=O)c4ccc(Nc5ncc6c(n5)N(C5CCCC5)[C@H](CC)C(=O)N6C)c(OC)c4)nc3OC)c3ncn(C)c3n2)C[C@H]1F [Compound I-131, 4-[(8-cyclopentyl-7-ethyl-5-methyl-6-oxo-7H-pteridin-2-yl)amino]-N-[3-[4-[[2-[(3R,4R)-3-fluoro-4-(prop-2-enoylamino)pyrrolidin-1-yl]-9-methyl-purin-6-yl]amino]-3-methoxy-pyrazol-1-yl]propyl]-3-methoxy-benzamide] | – | 500 to 2500 nM | 500 to 2500 nM | 500 to 1500 nM | < 50 nM | 500 to 1500 nM | – | – |
| C=CC(=O)N[C@@H]1CN(c2nc(Nc3cn(CCOCCOCCOCCOCCOCCOCCOc4ccc(CNc5cc(N6CCCC[C@@H]6CCO)nc6c(CC)cnn56)cn4)nc3OC)c3ncn(C)c3n2)C[C@H]1F [Compound I-140, N—[(3R,4R)-1-[6-[[1-[2-[2-[2-[2-[2-[2-[2-[[5-111[[[3-ethyl-5-[(2R)-2-(2-hydroxyethyl)-1-piperidyl]pyrazolo[1,5-a]pyrimidin-7-yl]amino]methyl]-2-pyridyl]oxy]ethoxy]ethoxy]ethoxy]ethoxy]ethoxy]ethoxy]ethyl]-3-methoxy-pyrazol-4-yl]amino]-9-methyl-purin-2-yl]-4-fluoro-pyrrolidin-3-yl]prop-2-enamide] | – | 50 to 500 nM | 50 to 500 nM | – | < 50 nM | – | < 500 nM | < 500 nM |
| C=CC(=O)N[C@@H]1CN(c2nc(Nc3cn(CCOc4ccc(CNc5cc(N6CCCC[C@H]6CCO)nc6c(CC)cnn56)cn4)nc3OC)c3ncn(C)c3n2)C[C@H]1F [Compound I-139, N-[(3R,4R)-1-[6-[[1-[2-[[5-1[[[3-ethyl-5-[(2S)-2-(2-hydroxyethyl)-1-piperidyl]pyrazolo[1,5-a]pyrimidin-7-yl]amino]methyl]-2-pyridyl]oxy]ethyl]-3-methoxy-pyrazol-4-yl]amino]-9-methyl-purin-2-yl]-4-fluoro-pyrrolidin-3-yl]prop-2-enamide] | – | 50 to 500 nM | 50 to 500 nM | < 500 nM | < 50 nM | < 500 nM | – | – |
| C=CC(=O)Nc1cc(Nc2nccc(-c3cn(C)c4ccccc34)n2)c(OC)cc1N(C)CCN(C)CCOCCOCCOCCOCCOCCOCCOc1ccc(CNc2cc(N3CCCC[C@H]3CCO)nc3c(CC)cnn23)cn1 [Compound I-133] | – | 500 to 2500 nM | 500 to 2500 nM | < 500 nM | < 50 nM | < 500 nM | – | – |
| C=CC(=O)Nc1cc(Nc2nccc(-c3cn(C)c4ccccc34)n2)c(OC)cc1N(C)CCN(C)CCOCCON(C)C(=O)N1N=C(c2cc(F)ccc2F)S[C@@]1(CCCN)c1ccccc1 [Compound I-127, (2S)-2-(3-aminopropyl)-5-(2,5-difluorophenyl)-N-[2-[2-[2-[5-methoxy-N-methyl-4-[[4-(1-methylindol-3-yl)pyrimidin-2-yl]amino]-2-(prop-2-enoylamino)anilino]ethyl-methyl-amino]ethoxy]ethoxy]-N-methyl-2-phenyl-1,3,4-thiadiazole-3-carboxamide] | – | 50 to 500 nM | 50 to 500 nM | 1500 to 5000 nM | < 50 nM | 500 to 1500 nM | – | – |
| CC[C@@H]1C(=O)N(C)c2cnc(Nc3ccc(C(=O)NCCOCCOCCOCCOCCN(C)C/C=C/C(=O)N[C@@H]4CN(c5nc(Nc6cn(C)nc6OC)c6ncn(C)c6n5)C[C@H]4F)cc3OC)nc2N1C1CCCC1 [Compound I-129, 4-[[(7R)-8-cyclopentyl-7-ethyl-5-methyl-6-oxo-7H-pteridin-2-yl]amino]-N-[2-[2-[2-[2-[2-[[(E)-4-[[(3R,4R)-4-fluoro-1-[6-[(3-methoxy-1-methyl-pyrazol-4-yl)amino]-9-methyl-purin-2-yl]pyrrolidin-3-yl]amino]-4-oxo-but-2-enyl]-methyl-amino]ethoxy]ethoxy]ethoxy]ethoxy]ethyl]-3-methoxy-benzamide] | – | 500 to 2500 nM | 500 to 2500 nM | 500 to 1500 nM | 50 to 500 nM | 500 to 1500 nM | – | – |
| Cc1ccnc(C(C)C)c1-n1c(=O)nc(N2CCN(C(=O)/C=C/CN(C)CCOCCOCCOCCOCCOCCOCCON(C)C(=O)N3N=C(c4cc(F)ccc4F)SC3(CCCN)c3ccccc3)C[C@@H]2C)c2cc(F)c(-c3c(O)cccc3F)nc21 (stereo partly drawn) [Compound I-77] | 1000 to 5000 nM | – | – | – | – | – | – | – |
